Starred links: 1 amine or outer side, 2 acyl side, 3 side chain; linkers in the order of their positions; H or OH if unused. Positions of bridges follow the written chain, without caps; N, C: chain ends. Non-standard residues stand in square brackets, D forms with d. Residues, ends and D or L forms follow the SMILES beside them. Chains are numbered I, II in the order given. *: point of attachment. Actinocin(9to1) = Cc1c2oc3c(C)ccc(C(=O)[*:1])c3nc-2c(C(=O)[*:2])c(N)c1=O; NMeV = CN[C@H](C(=O)O)C(C)C; Cbz = O=C(OCc1ccccc1)*; Sar = CNCC(=O)O; CH2F = FC*
How the values were obtained:
primary BMDMs [1] = test: Seahorse metabolic analysis (ECAR, OCR) of TLR-induced glycolysis; type: cell-based; conditions: for TLR-induced ECAR increase: primary BMDMs with inhibitor (2-DG 25 mM; Actinomycin D 1.5 μg/ml; BX795 5 μM; MRT67307 2.5 μM; Triciribine 20 μM), stimulated with LPS, P3C, R848; for ECAR / mitochondrial oxygen consumption (OCR): primary BMDMs or iBMDMs stimulated with the TLR ligand
Procedure: Seahorse Metabolic Analysis. Extracellular acidification rate (ECAR) and oxygen consumption rate (OCR) were measured with a Seahorse XFe96 Extracellular Flux Analyzer instrument primary BMDMs and iBMDMs
For real-time experiment, primary BMDMs (5×10^4 per well) and iBMDMs (7.5×10^4 per well) were seed in a Seahorse 96 well plate in complete DMEM medium. Cells were allowed to attach to the assay plate for 4-5 hours, then cells were washed one time with serum-free Seahorse Assay Medium and incubated in Seahorse Assay Medium containing 5% FBS, 10 mM Glucose and 2 mM Glutammine in 37° C. incubator without CO2 for 60 min. ECAR and OCR was measured under basal conditions, after treatment with TLR ligands (LPS 1 μg/ml; P3C 1 μg/ml; R848 1 μg/ml) or inhibitors (and their combination). In the assays which required pre-treatment with inhibitors, chemical inhibitors were injected into the wells by the Seahorse Analyzer, and the incubation time were allowed to proceed for 45 min, prior to the injection of TLR ligands. […] Data represent mean±SEM of triplicate wells.

glycolysis = test: 2-DG treatment of TLR-activated cells (Example 6); type: cell-based
Myd88-/-/Trif-/- iBMDMs = test: PI staining and LDH release quantification (TLR-induced necroptosis); type: cell-based, murine; conditions: MyD88-RIP3 expressing cells; GSK872 2.5 μM; Nec-1 5 μM; ZVAD 10 μM
Procedure: (§1) PI staining and LDH release quantification. For experiments measuring end-point PI staining, PI (5 μM) was included in the culture media to monitor transient pore formation at the last 30 min for each incubation period. A Tecan plate reader was used to measure PI staining (excitation 535 nm, emission 617 nm). Supernatants were assayed for LDH release freshly after stimulation time courses using the Pierce LDH cytotoxicity colorimetric assay kit per the manufacturer's instruction. The same Tecan plate reader was used to measure LDH release (absorbance 490 nm and 680 nm). Cells treated with detergent-containing lysis buffer were used as positive control for PI staining, the resulted supernatants from treated cells were used as positive control for LDH release quantification.
Generation of synthetic MyD88 molecules. To generate MyD88-NpLxIS and MyD88 CpLxIS alleles, the cDNA sequence encoding the STING pLxIS motif (340-378 a.a.) was fused in tandem then attached to the cDNA sequence encoding the MyD88 protein either at the 5-prime end (for MyD88-NpLxIS) or at the 3-prime end (for MyD88-CpLxIS). The fusion cDNAs were then synthesized as gBLOCKs via IDT. The mutant alleles were also synthesized as gBLOCKs. To generate the MyD88-RIP3 allele, the cDNA sequence encoding the full-length RIP3 was attached the MyD88-encoding cDNA sequence at the 3-prime end. The fusion cDNA was then synthesized as a gBLOCK via IDT. All synthetic DNA sequences were optimized to avoid internal repeats and for optimal expression in murine cells via the IDT online program.

[2] = system: Myd88-/-/Trif-/- iBMDMs expressing MyD88-RIP3; test: Microscopy imaging of cell morphology; type: cell-based, murine
Procedure: Microscopy imaging of cell morphology and live cell imaging. To determine cell morphology after TLR stimulation, Myd8^−/−/Trif^−/− iBMDMs expressing MyD88 and MyD88-RIP3 were seeded in 12-well plates (0.5×10^6 per well) and were subjected to indicated treatments (Staurosporine 1 μM; TLR ligands 1 μg/ml) to induce cell death. For static image capture, a Nikon Eclipse TS100 microscope was used with 40× magnification. Images were processed with the “NIS-Elements F” software. Representative images were chosen from at least three randomly chosen fields from one representative experiment of three independent experiments.

primary BMDMs [3] = test: LDH release from primary BMDMs stimulated with LPS in the presence of inhibitors; type: cell-based; conditions: 18 hr
Procedure: as §1

TBK1 = test: Western analysis of TBK1 activation in primary BMDMs stimulated with TLR ligands; type: cell-based
Procedure: (§2) Western blotting and immunoprecipitation. For western analysis of signaling pathway activation, primary BMDMs (1×10^6) or iBMDMs (0.5×10^6) were seeded in 12 well plates and stimulated with ligands for indicated periods, and subsequently lysed in 300 μl 1×SDS containing 8 M UREA. Lysates were incubated at 65° C. for 15 min. Before SDS-PAGE separation, lysates were passed through a BD 1 ml sub-Q syringe attached to a 26G needle to reduce viscosity. 15 μl of individual samples (15-20 μg protein from whole cell extract) were separated by SDS-PAGE followed by western analysis.

AKT = test: Western analysis of AKT phosphorylation in primary BMDMs stimulated with TLR ligands; type: cell-based; conditions: primary WT BMDMs
Procedure: as §2

[4] = system: Il-1b and Il-6 transcripts; test: qPCR of TLR-induced Il-1b and Il-6 transcripts in primary BMDMs; type: cell-based; conditions: primary BMDMs pretreated with ActD 1.5 μg/ml for 40 min, TLR ligands 4 h
Procedure: (§3) Gene expression analysis and ELISA. RNA was isolated from cell cultures using Qiashedder (Qiagen) and GeneJET RNA Purification Kit (Life Technologies). Purified RNA was analyzed for gene expression on a CFX384 real time cycler (Bio-rad) using TaqMan RNA-to-CT 1-Step Kit (Applied Biosystems) with probes specific for Rsad2, II-1b, Il-6 and Gapdh.

PARP = PARP cleavage by western analysis; type: cell-based, murine; conditions: Myd88-/-/Trif-/- iBMDMs expressing MyD88-RIP3, TLR ligands or staurosporine 1 μM, 6 hr
Procedure: as §2

myddosome = molecular target: T1, myddosome (UniProt P0AES6+P22366); test: Coumermycin-induced myddosome formation in Myd88-/-/Trif-/- iBMDMs expressing 3×FLAG-MyD88-GyrB; type: cell-based, murine; conditions: CM 0.5 μM
T1 construct: expressed in transfected cells; host or cells: Myd88-/-/Trif-/- iBMDMs, retroviral transduction (pMSCV-IRES-GFP)
Procedure: as §3
For myddosome isolation, iBMDMs (5×10^6) were stimulated with ligands for indicated times, and subsequently lysed in 400 μL of lysis buffer containing 50 mM Tris-HCl (pH 7.5), 150 mM NaCl, 5% Glycerol, 1 mM Sodium dioxycholate and 1% NP40. Protease inhibitors and phosphatase inhibitors were added prior to cell lysis. Lysates were spun at top speed for 15 minutes at a table-top centrifuge in the cold room (at 4° C.). The cleared supernatants were collected and 80 μL of the supernatants was saved as sample inputs. 0.5 μg of the anti-MyD88 antibody with 15 15 μl (bed volume) of protein G sepharose (for endogenous MyD88) or 15 μl (bed volume) of anti-FLAG (M2) agarose (for 3×FLAG-MyD88 alleles) was added to the remaining supernatants and the incubation were allowed to proceed for 4-5 hr at 4° C. on a nutator. The beads containing the protein complexes were then washed for 3 times with lysis buffer, and 60 μL of SDS loading buffer was added. The protein complexes were further eluted by heating at 65° C. for 15 minutes. A portion of eluted protein complexes (20 μl) were separated by SDS-PAGE and analyzed by western blot.
Cells were fixed at room temperature for 30 min, permeabilized with 0.2% Triton X-100 for 5 min at room temperature and […] with 2% goat serum in PBS supplemented with 50 mM ammonium chloride. Primary and secondary antibody staining were performed following product instructions. Working concentrations of primary antibodies were used as the following: pTBK1 (1:100), pp 38 (1:100), FLAG (M2) (1:100). Samples were imaged by the Zeiss 880 laser scanning confocal microscope.

IRF3 = test: Western analysis of IRF3 activation in primary BMDMs stimulated with TLR ligands; type: cell-based
Procedure: as §2

TLR4 = molecular target: T2, TLR4 (Mus musculus, UniProt Q9JHF9+Q9QUK6); test: Isolation of protein complexes associated with activated TLR4; type: cell-based; conditions: iBMDMs, LPS 100 ng/ml, within minutes
T2 construct: endogenous in cells; host or cells: WT iBMDMs
T2 sequence (Q8R4K2 whole entry): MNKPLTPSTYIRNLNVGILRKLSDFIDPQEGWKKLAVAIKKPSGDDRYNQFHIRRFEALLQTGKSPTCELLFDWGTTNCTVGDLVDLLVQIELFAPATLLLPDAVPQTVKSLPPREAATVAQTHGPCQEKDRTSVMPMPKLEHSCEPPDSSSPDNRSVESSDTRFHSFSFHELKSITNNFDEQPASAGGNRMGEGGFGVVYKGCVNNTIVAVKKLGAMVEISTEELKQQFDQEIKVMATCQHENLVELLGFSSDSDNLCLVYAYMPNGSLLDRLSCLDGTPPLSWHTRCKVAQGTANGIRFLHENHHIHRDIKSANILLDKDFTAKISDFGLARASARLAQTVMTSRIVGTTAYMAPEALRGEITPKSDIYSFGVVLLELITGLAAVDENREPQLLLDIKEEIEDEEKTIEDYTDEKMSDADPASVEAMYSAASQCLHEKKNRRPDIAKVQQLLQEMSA
T2 sequence (Q9QUK6 26-835): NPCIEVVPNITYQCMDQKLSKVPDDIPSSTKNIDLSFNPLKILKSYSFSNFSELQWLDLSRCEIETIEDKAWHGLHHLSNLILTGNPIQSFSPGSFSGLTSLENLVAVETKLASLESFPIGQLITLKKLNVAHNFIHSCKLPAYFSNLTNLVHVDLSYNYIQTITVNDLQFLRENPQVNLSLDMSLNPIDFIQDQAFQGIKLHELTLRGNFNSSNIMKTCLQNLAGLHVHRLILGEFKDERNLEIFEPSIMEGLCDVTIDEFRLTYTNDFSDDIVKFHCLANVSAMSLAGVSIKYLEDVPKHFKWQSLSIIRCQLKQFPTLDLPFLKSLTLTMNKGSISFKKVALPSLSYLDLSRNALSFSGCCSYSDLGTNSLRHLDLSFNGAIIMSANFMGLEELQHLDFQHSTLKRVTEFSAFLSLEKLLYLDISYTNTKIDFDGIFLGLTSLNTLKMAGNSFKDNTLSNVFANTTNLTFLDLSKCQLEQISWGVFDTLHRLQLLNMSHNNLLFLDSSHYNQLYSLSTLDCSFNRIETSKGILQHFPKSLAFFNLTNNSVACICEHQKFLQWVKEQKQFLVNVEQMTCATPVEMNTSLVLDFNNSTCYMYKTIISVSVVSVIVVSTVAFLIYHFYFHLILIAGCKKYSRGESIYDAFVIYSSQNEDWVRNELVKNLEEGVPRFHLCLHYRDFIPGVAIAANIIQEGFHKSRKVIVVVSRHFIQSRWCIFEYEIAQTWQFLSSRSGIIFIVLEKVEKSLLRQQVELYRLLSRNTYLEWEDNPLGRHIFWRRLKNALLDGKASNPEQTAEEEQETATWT
T2 sequence (Q9JHF9 19-160): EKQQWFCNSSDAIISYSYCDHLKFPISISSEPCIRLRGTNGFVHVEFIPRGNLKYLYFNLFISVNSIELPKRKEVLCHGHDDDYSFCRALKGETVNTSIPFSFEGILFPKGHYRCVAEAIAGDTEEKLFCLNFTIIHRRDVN
T2 sequence (P22366 whole entry, further chain): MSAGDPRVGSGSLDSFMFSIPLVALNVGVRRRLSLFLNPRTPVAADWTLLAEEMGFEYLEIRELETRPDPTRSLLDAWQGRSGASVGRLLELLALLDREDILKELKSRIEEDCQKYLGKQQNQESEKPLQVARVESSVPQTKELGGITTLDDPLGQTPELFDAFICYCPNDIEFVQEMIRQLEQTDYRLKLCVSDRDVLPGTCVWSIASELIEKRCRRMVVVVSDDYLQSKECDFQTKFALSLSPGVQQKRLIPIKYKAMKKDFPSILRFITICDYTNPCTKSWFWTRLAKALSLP
T2 sequence (Q8CFA1 whole entry, further chain): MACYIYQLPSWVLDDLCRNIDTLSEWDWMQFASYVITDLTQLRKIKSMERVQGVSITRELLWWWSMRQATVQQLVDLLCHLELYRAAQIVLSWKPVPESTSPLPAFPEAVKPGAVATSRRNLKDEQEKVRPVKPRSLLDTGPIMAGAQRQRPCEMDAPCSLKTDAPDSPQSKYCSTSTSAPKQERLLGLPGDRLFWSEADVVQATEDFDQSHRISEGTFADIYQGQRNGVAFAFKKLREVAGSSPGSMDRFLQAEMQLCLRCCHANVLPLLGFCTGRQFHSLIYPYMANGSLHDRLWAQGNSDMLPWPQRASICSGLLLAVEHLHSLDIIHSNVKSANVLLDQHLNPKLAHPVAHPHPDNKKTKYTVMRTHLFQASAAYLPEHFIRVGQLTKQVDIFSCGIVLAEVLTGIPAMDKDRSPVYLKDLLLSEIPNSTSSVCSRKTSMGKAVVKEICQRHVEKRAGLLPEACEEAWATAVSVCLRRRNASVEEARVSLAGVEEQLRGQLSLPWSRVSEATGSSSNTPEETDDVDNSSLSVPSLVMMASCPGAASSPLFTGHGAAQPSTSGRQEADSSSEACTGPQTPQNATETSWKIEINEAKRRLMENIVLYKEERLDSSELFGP
Procedure: For isolation of protein complexes associated with activated TLRs, cells were lysed using a modified lysis buffer containing 50 mM HEPES, 150 mM NaCl, 0.5% DDM (n-Dodecyl-β-D-Maltoside), 0.05% CHS (cholesteryl hemisuccinate). This buffer is suitable for the isolation of membrane protein complexes. 0.5 μg of biotinylated anti-TLR4 (Sal5-21) antibody was used (per sample) to capture the TLR4 signaling complex with streptavidin agarose. 15 μl (bed volume) of anti-HA agarose was used (per sample) to capture the TLR9-HA signaling complex. Immunoprecipitates were washed 3 times with the modified lysis buffer and analyzed by western blot.

In the case of OCC1OC(O)CC(O)C1O (stereo not shown) [2-DG], the “TLR-induced ECAR increase” value (primary BMDMs [1]) is reported as “blocked”, the “cytokine gene transcription versus translation” value (glycolysis) is reported as “uncoupled cytokine gene transcription from translation” and the “host responses at the receptor proximal” value (glycolysis) is reported as “did not affect”.

In the case of O=C(NCCCNc1nc(Nc2cccc(NC(=O)N3CCCC3)c2)ncc1I)c1cccs1 [BX795], the “TLR-induced ECAR increase” value (primary BMDMs [1]) is reported as “dampened”.

In the case of CC(C)S(=O)(=O)c1ccc2nccc(Nc3ccc4scnc4c3)c2c1 [GSK872], the “TLR-induced LDH release (cell death) with inhibitor” value (Myd88-/-/Trif-/- iBMDMs) is reported as “blocked”, the “TLR-induced PI staining (membrane rupture) with inhibitor” value (Myd88-/-/Trif-/- iBMDMs) is reported as “blocked” and the “morphological changes of TLR-stimulated MyD88-RIP3 cells with inhibitor pre-treatment” value ([2]; GSK872 2.5 μM) is reported as “could be suppressed”.

In the case of O=C(NCCCNc1nc(Nc2cccc(CN3CCOCC3)c2)ncc1C1CC1)C1CCC1 [MRT67307], the “TLR-induced ECAR increase” value (primary BMDMs [1]) is reported as “dampened”.

For CN1C(=O)C(Cc2c[nH]c3ccccc23)NC1=S (stereo not shown) [Nec-1], the “TLR-induced LDH release (cell death) with inhibitor” value (Myd88-/-/Trif-/- iBMDMs) was “unaffected”, the “TLR-induced PI staining (membrane rupture) with inhibitor” value (Myd88-/-/Trif-/- iBMDMs) was “unaffected” and the “prevention of ZVAD plus LPS induced necroptosis” value (primary BMDMs [3]; primary BMDMs) was “could be prevented”.

With CCOCc1nc2c(N)nc3ccccc3c2n1CC(C)(C)O [R848] the “TBK1 activation (pTBK1)” value (TBK1) was “activated”, the ECAR (primary BMDMs [1]) was “increased ECAR rapidly” and the “mitochondrial oxygen consumption (OCR)” value (primary BMDMs [1]) was “without causing discernible changes”. The AKT phosphorylation (AKT) was “induced AKT phosphorylation”.

For COC(=O)C[C@H](NC(=O)[C@H](C)NC(=O)[C@@H](NC(=O)OCc1ccccc1)C(C)C)C(=O)CF [ZVAD] (Cbz-Val-Ala-Asp(OMe)-CH2F), the “TLR-induced LDH release (cell death) with inhibitor” value (Myd88-/-/Trif-/- iBMDMs) was “failed to prevent”, the “TLR-induced PI staining (membrane rupture) with inhibitor” value (Myd88-/-/Trif-/- iBMDMs) was “failed to prevent” and the “necroptosis (LDH release) of primary BMDMs” value (primary BMDMs [3]; ZVAD 10 μM pre-treatment followed by LPS) was “induced necroptosis”.

For Cc1c2oc3c(C)ccc(C(=O)N[C@@H]4C(=O)N[C@H](C(C)C)C(=O)N5CCC[C@H]5C(=O)N(C)CC(=O)N(C)[C@@H](C(C)C)C(=O)O[C@@H]4C)c3nc-2c(C(=O)N[C@@H]2C(=O)N[C@H](C(C)C)C(=O)N3CCC[C@H]3C(=O)N(C)CC(=O)N(C)[C@@H](C(C)C)C(=O)O[C@@H]2C)c(N)c1=O [actinomycin D] (I: T[dV]P[Sar][NMeV] / II: T[dV]P[Sar][NMeV]; ester I:1-I:C, II:1-II:C; linker I:N-II:N via Actinocin(9to1)), the “TLR-induced ECAR increase” value (primary BMDMs [1]) was “still able to increase ECAR” and the “TLR-induced transcription of Il-1b and Il-6” value [4] was “prevented”.

CN[C@@H]1C[C@H]2O[C@@](C)([C@@H]1OC)n1c3ccccc3c3c4c(c5c6ccccc6n2c5c31)C(=O)NC4 [staurosporine] was tested, and the PARP cleavage (PARP) was “induced PARP cleavage” and the cell morphology ([2]; 1 hr post-stimulation, TLR ligands or staurosporine 1 μM) was “membrane blebbing, generation of apoptotic bodies/vesicles”.

coumermycin [CM] was tested, and the myddosome formation (myddosome) was “induced myddosome formation”, the “p38 activation (nuclear staining pattern)” value (myddosome; 30 min) was “clearly activated” and the “pTBK1 staining of MyD88 specks” value (myddosome; 30 min) was “stained positive for pTBK1”. The “phosphorylated p38 (pp38) within MyD88 specks” value (myddosome; 30 min) was “not detected within MyD88 specks”, the “cells with distinct MyD88 specks” value (myddosome; 30 min, immunofluorescence) was “more than 60%” and the Il-1b expression (myddosome; 4 hr, qPCR) was “comparable to that induced by LPS and P3C treatment”.

In the case of lipopolysaccharide [LPS], the “TBK1 activation (pTBK1)” value (TBK1) is reported as “activated”, the ECAR (primary BMDMs [1]) is reported as “increased ECAR rapidly” and the “mitochondrial oxygen consumption (OCR)” value (primary BMDMs [1]) is reported as “without causing discernible changes”. The “IRF3 activation (pIRF3)” value (IRF3) was “activated”, the AKT phosphorylation (AKT) was “induced” and the “recruitment of endogenous MyD88, IRAK2 and IRAK4 to TLR4” value (TLR4) was “inducibly recruited”.

Reference: patent publication US20240158453A1, “Nucleic Acids That Manipulate Immune Pathways” (Children`s Medical Center Corporation, priority 2017, published 2024)
